# Measured values published in publication PMC5374420, “In Search of Small Molecule Inhibitors Targeting the Flexible CK2 Subunit Interface” (Pharmaceuticals, 2017).
# Where a SMILES comes first, the peptide text is derived from it. Bridges are numbered along the chain shown (N, C = ends).
# Key:
# CK2α = target: T1, CK2α (Homo sapiens, UniProt P68400); experiment: Thermal shift assay in cell lysates; assay type: binding
# T1 construct: endogenous in cells; host or cells: MCF-10A (CK2β-silenced by pLKO1 lentiviral shRNA; WT as comparison)
# Procedure: Thermal shift assay (TSA) is based on the biophysical principle of ligand-induced thermal stabilization of target proteins. This assay can be used to detect protein–ligand interactions in complex cell extracts. Therefore, we have generated thermal melting curves from cell extracts, in which the extent of CK2 unfolding was measured. The assays were performed on WT or CK2β-depleted MCF-10A cell extracts incubated with 50 µM of TAT or TAT-Pc 13 and exposed to increasing temperatures.
# Figure 5 Thermal shift assay in cell lysates. CK2β-depleted MCF-10A cell lysates were treated with 50 µM TAT or TAT-Pc 13 (A), or with PBS (Phosphate-buffered saline) or CK2β (B) for 30 min at room temperature. The respective lysates were divided into 20 µL aliquots and heated individually at different temperatures for 3 min. After centrifugation, the supernatants were assayed for CK2 activity with the CK2β-independent peptide substrate. Representative data shown from two independent experiments in duplicate.
# CK2β-depleted MCF-10A cell lysates prepared in 50 mM Tris-HCl pH 7.5, 150 mM NaCl, and 2% glycerol supplemented with Complete Protease Inhibitor Cocktail (Sigma, #P8340) were divided into four aliquots with two being treated with 50 µM TAT or […] and the other two aliquots with CK2β or PBS (control). […]
# HeLa = experiment: Cell death of cancerous cell line, PrestoBlue assay; assay type: cell-based; conditions: 6 h, increasing concentrations (Figure S1)
# Procedure: (§1) Alternatively, cell viability was measured using the PrestoBlue® assay (Invitrogen, Carlsbad, CA, USA). The microtiter plates containing the treated cells were incubated for 1 h with 10 µL PrestoBlue. The fluorescence was recorded at 580 nm using a FluoStar Optima plate reader (BMG LabTech, Ortenberg, Germany).
# (§2) Supplementary Materials: In Search of Small
# (§3) Molecule Inhibitors Targeting the Flexible CK2
# (§4) Benoit Bestgen, Zakia Belaid-Choucair, Thierry Lomberget, Marc Le Borgne, Odile Filhol […]
# (§5) Figure S1. Cellular effects of TAT-Pc 13. (A) MDA MB-231 cells (⦁-⦁) or HeLa cells (○-○) were incubated for 6 h with increasing concentrations of TAT-Pc 13 and cell death was measured using the PrestoBlue assay as described in Material and Methods; (B) 786-O cells were treated for 12 h with increasing concentrations of CX-4945, lysed and analyzed by Western blot; (C) 786-O cells were treated with 20 µM TAT-Pc 13 or 5 µM CX-4945 and immunostained for p21 expression.
# (§6) Figure 2. Inhibition of TAT-Pc-induced cell death. MCF-10A cells were pre-treated in the absence (CTRL) or presence of 20 µM z-VAD or 30 µM Necrostatin-1 or 20 µM z-VAD + 30 µM Necrostatin-1 for 5 h and then incubated for 4 h with 25 µM random TAT-Pc 13 or TAT-Pc 13 and cell viability was evaluated as in Figure 8A. […]
# MDA MB-231 = experiment: as above; assay type: cell-based; conditions: 6 h, increasing concentrations (Figure S1)
# Procedure: as §1, §2, §3, §4, §5, §6
# [1] = target: T2, CK2α/CK2β interaction in MCF-10A cells (Homo sapiens, UniProt P68400); experiment: CK2β immunoprecipitation from treated cells, Western blot of CK2α; assay type: cell-based; conditions: WT MCF-10A cells, 50 µM for 2 h, compared with TAT
# T2 construct: endogenous in cells; host or cells: MCF-10A (WT)
# Procedure: To assess the cell-penetrating properties of TAT-Pc 13, we used a tetramethylrhodamine-conjugated TAT-Pc 13 analogue (TAMRA-TAT-Pc 13). The cellular uptake of this fluorescently labeled peptide was very rapid: only 2 min after incubation, the peptide was detectable in MCF-10A cells and plateauing after 5 min (Figure 7A). The impact of TAT-Pc 13 cell uptake on the expression of the CK2 subunits in WT and CK2β-depleted MCF-10A cells was evaluated by Western blot. […] We next evaluated the effect of TAT-Pc 13 on the CK2 subunit association using two independent strategies. First, CK2β was immunoprecipitated in extracts of MCF-10A cells treated with TAT or TAT-Pc 13 and the amount of CK2α recovered in the immunoprecipitates was analyzed by Western blot.
# Figure 7 Uptake and cellular effects of TAT-Pc 13. (A) kinetic of TAMRA-TAT-Pc 13 uptake in MCF-10A cells; (B) WT or CK2β-depleted MCF-10A cells were incubated with 50 µM TAT or TAT-Pc 13 for 8 h and the expression of CK2 subunits was evaluated by Western blot; (C) anti-CK2β immunoprecipitates were prepared from WT MCF-10A cells incubated with 50 µM TAT or TAT-Pc 13 for 2 h. Presence of CK2 subunits in the corresponding immunoprecipitates was determined by Western blot; (D) in situ proximity ligation images of MCF-10A cells incubated with 50 µM TAT (a,b,d) or TAT-Pc 13 (c) for 6 h. […]
# T1 sequence (P68400 whole entry): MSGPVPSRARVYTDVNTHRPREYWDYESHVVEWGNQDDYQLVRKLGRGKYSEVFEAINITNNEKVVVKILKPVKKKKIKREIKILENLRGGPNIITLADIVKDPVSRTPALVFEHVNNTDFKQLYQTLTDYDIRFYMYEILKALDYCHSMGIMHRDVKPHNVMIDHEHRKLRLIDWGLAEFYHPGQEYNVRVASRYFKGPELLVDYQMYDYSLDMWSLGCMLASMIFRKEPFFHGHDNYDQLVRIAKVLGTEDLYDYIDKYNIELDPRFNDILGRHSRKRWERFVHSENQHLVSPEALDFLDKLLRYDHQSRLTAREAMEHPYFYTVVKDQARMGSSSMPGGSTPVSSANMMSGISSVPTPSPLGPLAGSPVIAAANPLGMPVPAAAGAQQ
# T2 sequence (P68400 whole entry): as above
smiles,measurement,setting,value
CC[C@H](C)[C@@H]1NC(=O)[C@H](CCCCN)NC(=O)[C@H](Cc2ccccc2)NC(=O)CNC(=O)[C@H](Cc2ccc(O)cc2)NC(=O)[C@H](CC(C)C)NC(=O)[C@H](CCCNC(=N)N)NC(=O)CNC(=O)CNC(=O)[C@@H](NC(=O)[C@H](CCC(N)=O)NC(=O)[C@@H]2CCCN2C(=O)[C@@H]2CCCN2C(=O)[C@H](CCCNC(=N)N)NC(=O)[C@H](CCCNC(=N)N)NC(=O)[C@H](CCCNC(=N)N)NC(=O)[C@H](CCC(N)=O)NC(=O)[C@H](CCCNC(=N)N)NC(=O)[C@H](CCCNC(=N)N)NC(=O)[C@H](CCCCN)NC(=O)[C@H](CCCCN)NC(=O)[C@H](CCCNC(=N)N)NC(=O)CN)CCCCNC(=O)CNC(=O)CNC(=O)[C@H](Cc2c[nH]cn2)NC1=O [TAT-Pc 13] (H-GRKKRRQRRRPPQKGGRLYGFKIHGG; lactam 14-C; N-terminus assumed),shift in the melting curves,"CK2α; CK2β-depleted MCF-10A cell extracts, 50 µM peptide, 30 min at room temperature, 3 min heating, read-out CK2 activity",4 °C
same,thermal shift in WT cell extracts,"CK2α; extracts from WT MCF-10A cells, not shown",no thermal shift
same,induction of cell death,HeLa,induce cell death
same,induction of cell death,MDA MB-231,induce cell death
same,CK2α recovered in CK2β immunoprecipitates,[1],significantly less CK2α
